Structures can show the parent of a compound that is named as a salt.
Experiments:
[1] = tested on: carrageenin-induced foot edema; assay: inhibition of carrageenin-induced foot edema test (carrageenin edema, CE); assay type: in vivo; settings: oral
Description: (§1) Anti-inflammatory activity was determined using (1) the inhibition of carrageenin-induced foot edema test essentially described by Van Arman et al., J. Pharmacol. Exptl. Therap. 150, 328 (1965) as modified by Winter et al., Proc. Soc. Exp. Biol. and Med. 111, 544 (1962) and (2) a modification of the inhibition of adjuvant-induced arthritis test described by Pierson, J. Chronic Diseases 16, 863 (1963) and Glenn et al., Am. J. Vet. Res. 26, 1180 (1965). […] Data so-obtained, given in terms of percent inhibition at a dose expressed in terms of […] (μM)/kg., are given below. All data were obtained on oral administration.

[2] = tested on: adjuvant-induced arthritis; assay: modification of the inhibition of adjuvant-induced arthritis test (adjuvant arthritis, AA); assay type: in vivo; settings: oral
Description: as §1

[3] = dose 0.08 (millimoles (μM)/kg [sic])
[4] = dose 0.324 millimoles (μM)/kg [sic]
[5] = dose 0.16 millimoles (μM)/kg [sic]
[6] = dose 0.08 (millimoles (μM)/kg [sic]), hydrochloride
[7] = dose 0.324 millimoles (μM)/kg [sic], hydrochloride
[8] = dose 0.01 (millimoles (μM)/kg [sic])
[9] = dose 0.04 millimoles (μM)/kg [sic], hydrochloride
[10] = dose 0.16 millimoles (μM)/kg [sic], hydrochloride
[11] = dose 0.005 (printed millimoles (μM)/kg)
[12] = dose 0.02 (printed millimoles (μM)/kg)

Compound	CE (% Inhib./μM/kg.) [1, 3] [%]	CE (% Inhib./μM/kg.) [1, 4] [%]	CE (% Inhib./μM/kg.) [1, 6] [%]	CE (% Inhib./μM/kg.) [1, 7] [%]	AA (% Inhib./μM/kg.) [2, 8] [%]	AA (% Inhib./μM/kg.) [2, 10] [%]	also measured
CCN(CC)CCCC(C)NCC(C)c1ccc2cc(OC)ccc2c1 (stereo not drawn) [Example 6, N-[2-(6-methoxy-2-naphthyl)-2-methylethyl]-N-[5-(N',N'-diethyl-amino)-2-pentyl]amine]	28	26	–	–	–	–	AA (% Inhib./μM/kg.) [2, 5]: 73%
COc1ccc2cc(C(C)CN3CCCCC3CC3CCCCC3)ccc2c1.Cl (stereo not drawn) [1 (α-Isomer), 2-cyclohexylmethyl-1-[2-(6-methoxy-2-naphthyl)-2-methylethyl]piperidine hydrochloride]	–	–	14	40	0	86	AA (% Inhib./μM/kg.) [2, 9]: 8%
COc1ccc2cc(C(C)CN3CCCCC3CCC3CCCCC3)ccc2c1 (stereo not drawn) [Example 3, 2-(2-cyclohexylethyl)-1-[2-(6-methoxy-2-naphthyl)-2-methylethyl]-piperidinehydrochloride]	66	52	–	–	–	–	AA (% Inhib./μM/kg.) [2, 11]: 0%; AA (% Inhib./μM/kg.) [2, 12]: 40%; AA (% Inhib./μM/kg.) [2, 3]: 16%
COc1ccc2cc(CCN3CCCCC3CC3CCCCC3)ccc2c1 (stereo not drawn) [Example 5, 2-cyclohexylmethyl-1-[2-(6-methoxy-2-naphthyl)ethyl]piperidine]	29	68	–	–	–	–	AA (% Inhib./μM/kg.) [2, 4]: 55%
COc1ccc2cc(C(C)CN3CCCCC3C3CCCCC3)ccc2c1 (stereo not drawn) [Example 2, 2-cyclohexyl-1-[2-(6-methoxy-2-naphthyl)-2-methylethyl-]piperidine hydrochloride]	35	69	–	–	17	–	AA (% Inhib./μM/kg.) ([2]; dose 0.04 millimoles (μM)/kg [sic]): 31%; AA (% Inhib./μM/kg.) [2, 5]: 61%
COc1ccc2cc(C(C)CN3CCCCC3CC3CCCCC3)ccc2c1.Cl (stereo not drawn) [1 (β-Isomer), 2-cyclohexylmethyl-1-[2-(6-methoxy-2-naphthyl)-2-methylethyl]piperidine hydrochloride]	–	–	16	47	0	89	AA (% Inhib./μM/kg.) [2, 9]: 12%
COc1ccc2cc(C(C)CN3CCCCC3CC3CCCCC3)ccc2c1.Cl (stereo not drawn) [1 (γ-Isomer), 2-cyclohexylmethyl-1-[2-(6-methoxy-2-naphthyl)-2-methylethyl]-piperidine hydrochloride]	–	–	24	45	–	86	AA (% Inhib./μM/kg.) ([2]; dose 0.018 (printed millimoles (μM)/kg)): 2%; AA (% Inhib./μM/kg.) ([2]; dose 0.053 (printed millimoles (μM)/kg)): 49%
COc1ccc2cc(C(C)CN3CCC(CCC4CCCCC4)CC3)ccc2c1 (stereo not drawn) [Example 4, 4-(2-cyclohexylethyl)-1-[2-(6-methoxy-2-naphthyl)-2-methylethyl]-piperidine]	22	38	–	–	–	–	AA (% Inhib./μM/kg.) [2, 11]: 0%; AA (% Inhib./μM/kg.) [2, 12]: 0%; AA (% Inhib./μM/kg.) [2, 3]: 34%

— patent US4005093A, “2-Naphthyl-lower-alkylamines” (Sterling Drug Inc., priority 1975, dated 1977)
